From patent publication US10167262B2, “Herbicidal substituted 3-arylpyrazoles” (FMC CORPORATION, priority 2014, dated 2019)
Read-outs that look alike come from different tables or passages of the source.

Columns and labels:
Format in all cases: in vivo
[1] = system: blackgrass (Alopecurus myosuroides); assay: Test C pre-/postemergence greenhouse test, plant response rating 0-100; conditions: Alopecurus myosuroides; for pest or weed control at 62 g/ha: 62 g ai/ha; for pest or weed control at 125 g/ha: 125 g ai/ha; for pest or weed control at 250 g/ha: 250 g ai/ha; for pest or weed control at 500 g/ha: 500 g ai/ha
Summary of the method: (§1)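 Pre-emergence soil and post-emergence foliar sprays were applied simultaneously to seeded loam–sand pots and to 1–4-leaf plants in peat medium; greenhouse holding lasted 13–15 days, then plants were scored visually from 0 (no effect) to 100 (complete control).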

[2] = system: galium (catchweed bedstraw, Galium aparine); assay: as above; conditions: Galium; for pest or weed control at 62 g/ha: 62 g ai/ha; for pest or weed control at 125 g/ha: 125 g ai/ha; for pest or weed control at 250 g/ha: 250 g ai/ha; for pest or weed control at 500 g/ha: 500 g ai/ha
Summary of the method: as §1

[3] = system: giant foxtail (Setaria faberii); assay: as above; conditions: Setaria faberi; for pest or weed control at 62 g/ha: 62 g ai/ha; for pest or weed control at 125 g/ha: 125 g ai/ha; for pest or weed control at 250 g/ha: 250 g ai/ha; for pest or weed control at 500 g/ha: 500 g ai/ha
Summary of the method: as §1

[4] = system: johnsongrass (Sorghum halepense); assay: as above; conditions: Sorghum halepense; for pest or weed control at 62 g/ha: 62 g ai/ha; for pest or weed control at 125 g/ha: 125 g ai/ha; for pest or weed control at 250 g/ha: 250 g ai/ha; for pest or weed control at 500 g/ha: 500 g ai/ha
Summary of the method: as §1

[5] = system: lambsquarters (Chenopodium album); assay: as above; conditions: Chenopodium album; for pest or weed control at 62 g/ha: 62 g ai/ha; for pest or weed control at 125 g/ha: 125 g ai/ha; for pest or weed control at 250 g/ha: 250 g ai/ha; for pest or weed control at 500 g/ha: 500 g ai/ha
Summary of the method: as §1

[6] = system: large (Lg) crabgrass (Digitaria sanguinalis); assay: as above; conditions: Digitaria sanguinalis; for pest or weed control at 62 g/ha: 62 g ai/ha; for pest or weed control at 125 g/ha: 125 g ai/ha; for pest or weed control at 250 g/ha: 250 g ai/ha; for pest or weed control at 500 g/ha: 500 g ai/ha
Summary of the method: as §1

[7] = system: morningglory (Ipomoea coccinea); assay: as above; conditions: Ipomoea; for pest or weed control at 62 g/ha: 62 g ai/ha; for pest or weed control at 125 g/ha: 125 g ai/ha; for pest or weed control at 250 g/ha: 250 g ai/ha; for pest or weed control at 500 g/ha: 500 g ai/ha
Summary of the method: as §1

soybean (Glycine max) = assay: as above; conditions: Glycine max; for plant injury at 62 g/ha: 62 g ai/ha; for plant injury at 125 g/ha: 125 g ai/ha; for plant injury at 250 g/ha: 250 g ai/ha; for plant injury at 500 g/ha: 500 g ai/ha
Summary of the method: as §1

[8] = system: winter wheat (Triticum aestivum); assay: as above; conditions: Triticum aestivum; for plant injury at 62 g/ha: 62 g ai/ha; for plant injury at 125 g/ha: 125 g ai/ha; for plant injury at 250 g/ha: 250 g ai/ha; for plant injury at 500 g/ha: 500 g ai/ha
Summary of the method: as §1

[9] = system: yellow nutsedge (Cyperus esculentus); assay: as above; conditions: Cyperus; for pest or weed control at 62 g/ha: 62 g ai/ha; for pest or weed control at 125 g/ha: 125 g ai/ha; for pest or weed control at 250 g/ha: 250 g ai/ha; for pest or weed control at 500 g/ha: 500 g ai/ha
Summary of the method: as §1

[10] = system: chickweed (common chickweed, Stellaria media); assay: Test C postemergence greenhouse test, plant response rating 0-100; conditions: Stellaria media, post-emergence
Summary of the method: (§2)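 Formulated compounds applied postemergence; plants 1- to 4-leaf stage. Evaluated visually vs. untreated controls after roughly two weeks (13–15 d) under greenhouse conditions; 100 denotes complete control.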

kochia (Kochia scoparia) = assay: as above; conditions: Bassia scoparia, post-emergence
Summary of the method: as §2

wild oat (Avena fatua) = assay: as above; conditions: Avena fatua, post-emergence
Summary of the method: as §2

[11] = post-emergence, Postemergence, read-out: Plant response rating (0 to 100), Blackgrass
[12] = post-emergence, Postemergence, scale 0 to 100
[13] = pre-emergence, Preemergence, read-out: Plant response rating, Blackgrass
[14] = post-emergence, Postemergence, read-out: Plant response rating (0 to 100), Galium
[15] = pre-emergence, Preemergence, read-out: Plant response rating, Galium
[16] = post-emergence, Postemergence, read-out: Plant response rating (0 to 100), Foxtail, Giant
[17] = pre-emergence, Preemergence, read-out: Plant response rating, Foxtail, Giant
[18] = post-emergence, Postemergence, read-out: Plant response rating (0 to 100), Johnsongrass
[19] = pre-emergence, Preemergence, read-out: Plant response rating, Johnsongrass
[20] = post-emergence, Postemergence, read-out: Plant response rating (0 to 100), Lambsquarters
[21] = pre-emergence, Preemergence, read-out: Plant response rating, Lambsquarters
[22] = post-emergence, Postemergence, read-out: Plant response rating (0 to 100), Crabgrass, Large
[23] = pre-emergence, Preemergence, read-out: Plant response rating, Crabgrass, Large
[24] = post-emergence, Postemergence, read-out: Plant response rating (0 to 100), Morningglory
[25] = pre-emergence, Preemergence, read-out: Plant response rating, Morningglory
[26] = post-emergence, Postemergence, read-out: Plant response rating (0 to 100), Soybean
[27] = pre-emergence, Preemergence, read-out: Plant response rating, Soybean
[28] = post-emergence, Postemergence, read-out: Plant response rating (0 to 100), Wheat
[29] = pre-emergence, Preemergence, read-out: Plant response rating, Wheat
[30] = post-emergence, Postemergence, read-out: Plant response rating (0 to 100), Nutsedge, Yellow
[31] = pre-emergence, Preemergence, read-out: Plant response rating, Nutsedge, Yellow

C#CCn1cc(C(=O)c2ccccc2)c(-c2cc(Cl)cc(Cl)c2)n1 [Compound 39, [3-(3,5-dichlorophenyl)-1-(2-propyn-1-yl)-1H-pyrazol-4-yl]phenylmethanone]
30%: pest or weed control at 62 g/ha [5, 21]
20%: pest or weed control at 62 g/ha [7, 25] | pest or weed control at 125 g/ha [7, 25] | pest or weed control at 250 g/ha ([7]; pre-emergence, Preemergence) | pest or weed control at 500 g/ha ([7]; pre-emergence, Preemergence)
100%: pest or weed control at 250 g/ha [5, 12] | pest or weed control at 500 g/ha [5, 12] | pest or weed control at 125 g/ha [5, 21] | pest or weed control at 250 g/ha ([5]; pre-emergence, Preemergence) | pest or weed control at 500 g/ha ([5]; pre-emergence, Preemergence) | pest or weed control at 250 g/ha ([10]; 250 g ai/ha, scale 0 to 100) | pest or weed control at 500 g/ha ([10]; 500 g ai/ha, scale 0 to 100)
5%: pest or weed control at 250 g/ha ([2]; pre-emergence, Preemergence) | pest or weed control at 250 g/ha [4, 12] | pest or weed control at 500 g/ha [4, 12] | pest or weed control at 250 g/ha [6, 12] | pest or weed control at 500 g/ha [9, 12] | pest or weed control at 500 g/ha (wild oat (Avena fatua); 500 g ai/ha, scale 0 to 100)
15%: pest or weed control at 500 g/ha [6, 12] | pest or weed control at 62 g/ha (kochia (Kochia scoparia); 62 g ai/ha)
10%: pest or weed control at 250 g/ha [7, 12] | pest or weed control at 500 g/ha [7, 12]
80%: pest or weed control at 500 g/ha ([2]; pre-emergence, Preemergence) | pest or weed control at 62 g/ha [5, 20] | pest or weed control at 125 g/ha [5, 20] | pest or weed control at 500 g/ha (kochia (Kochia scoparia); 500 g ai/ha, scale 0 to 100)
55%: pest or weed control at 250 g/ha (kochia (Kochia scoparia); 250 g ai/ha, scale 0 to 100)
98%: pest or weed control at 62 g/ha ([10]; 62 g ai/ha) | pest or weed control at 125 g/ha ([10]; 125 g ai/ha)
40%: pest or weed control at 125 g/ha (kochia (Kochia scoparia); 125 g ai/ha)
0%: pest or weed control at 62 g/ha [1, 11] | pest or weed control at 125 g/ha [1, 11] | pest or weed control at 250 g/ha [1, 12] | pest or weed control at 500 g/ha [1, 12] | pest or weed control at 62 g/ha [1, 13] | pest or weed control at 125 g/ha [1, 13] | pest or weed control at 250 g/ha ([1]; pre-emergence, Preemergence) | pest or weed control at 500 g/ha ([1]; pre-emergence, Preemergence) | pest or weed control at 62 g/ha [2, 14] | pest or weed control at 125 g/ha [2, 14] | pest or weed control at 250 g/ha [2, 12] | pest or weed control at 500 g/ha [2, 12] | pest or weed control at 62 g/ha [2, 15] | pest or weed control at 125 g/ha [2, 15] | pest or weed control at 62 g/ha [3, 16] | pest or weed control at 125 g/ha [3, 16] | pest or weed control at 250 g/ha [3, 12] | pest or weed control at 500 g/ha [3, 12] | pest or weed control at 62 g/ha [3, 17] | pest or weed control at 125 g/ha [3, 17] | pest or weed control at 250 g/ha ([3]; pre-emergence, Preemergence) | pest or weed control at 500 g/ha ([3]; pre-emergence, Preemergence) | pest or weed control at 62 g/ha [4, 18] | pest or weed control at 125 g/ha [4, 18] | pest or weed control at 62 g/ha [4, 19] | pest or weed control at 125 g/ha [4, 19] | pest or weed control at 250 g/ha ([4]; pre-emergence, Preemergence) | pest or weed control at 500 g/ha ([4]; pre-emergence, Preemergence) | pest or weed control at 62 g/ha [6, 22] | pest or weed control at 125 g/ha [6, 22] | pest or weed control at 62 g/ha [6, 23] | pest or weed control at 125 g/ha [6, 23] | pest or weed control at 250 g/ha ([6]; pre-emergence, Preemergence) | pest or weed control at 500 g/ha ([6]; pre-emergence, Preemergence) | pest or weed control at 62 g/ha [7, 24] | pest or weed control at 125 g/ha [7, 24] | plant injury at 62 g/ha (soybean (Glycine max); [26]) | plant injury at 125 g/ha (soybean (Glycine max); [26]) | plant injury at 250 g/ha (soybean (Glycine max); [12]) | plant injury at 500 g/ha (soybean (Glycine max); [12]) | plant injury at 62 g/ha (soybean (Glycine max); [27]) | plant injury at 125 g/ha (soybean (Glycine max); [27]) | plant injury at 250 g/ha (soybean (Glycine max); pre-emergence, Preemergence) | plant injury at 500 g/ha (soybean (Glycine max); pre-emergence, Preemergence) | plant injury at 62 g/ha [8, 28] | plant injury at 125 g/ha [8, 28] | plant injury at 250 g/ha [8, 12] | plant injury at 500 g/ha [8, 12] | plant injury at 62 g/ha [8, 29] | plant injury at 125 g/ha [8, 29] | plant injury at 250 g/ha ([8]; pre-emergence, Preemergence) | plant injury at 500 g/ha ([8]; pre-emergence, Preemergence) | pest or weed control at 62 g/ha [9, 30] | pest or weed control at 125 g/ha [9, 30] | pest or weed control at 250 g/ha [9, 12] | pest or weed control at 62 g/ha [9, 31] | pest or weed control at 125 g/ha [9, 31] | pest or weed control at 250 g/ha ([9]; pre-emergence, Preemergence) | pest or weed control at 500 g/ha ([9]; pre-emergence, Preemergence) | pest or weed control at 62 g/ha (wild oat (Avena fatua); 62 g ai/ha) | pest or weed control at 125 g/ha (wild oat (Avena fatua); 125 g ai/ha) | pest or weed control at 250 g/ha (wild oat (Avena fatua); 250 g ai/ha, scale 0 to 100)
